Laboratory results taken from paper PMC11145269 (Proceedings of the National Academy of Sciences of the …, 2024).
Read-outs that look alike come from different tables or passages of the source.

How the values were obtained:
Assay in all cases: two-electrode voltage clamp, X. laevis oocytes
Format in all cases: cell-based
[1] = biological target: T1, NALCN WT channel complex (+UNC79, UNC80, and FAM155A) (Homo sapiens, UniProt Q8IZF0); conditions: inhibition of outward and inward currents, E/Z isomer mixture, buffer same
T1 construct: codon-optimised human cDNAs in modified pcDNA3.1(+); four mRNAs 1:1:1:1 co-injected in Xenopus laevis oocytes; 7SX3 is the human channelosome structure used for modelling; with Protein unc-79 homolog; Protein unc-80 homolog; NALCN channel auxiliary factor 1

[2] = biological target: T1, NALCN WT channel complex (+UNC79, UNC80, and FAM155A)
[3] = biological target: T2, NALCN WT channel complex (+UNC79, UNC80, and FAM155A) (Homo sapiens, UniProt Q8IZF0, L588A/M1145A/W311A/Y1436A)
T2 construct: codon-optimised human cDNAs in modified pcDNA3.1(+); four mRNAs 1:1:1:1 co-injected in Xenopus laevis oocytes; 7SX3 is the human channelosome structure used for modelling; with Protein unc-79 homolog; Protein unc-80 homolog; NALCN channel auxiliary factor 1

[4] = biological target: T1, NALCN WT channel complex (+UNC79, UNC80, and FAM155A); conditions: buffer same
[5] = biological target: T1, NALCN WT channel complex (+UNC79, UNC80, and FAM155A); conditions: buffer same; remark: listed apart in the source
[6] = biological target: T3, NALCN WT channel complex (+UNC79, UNC80, and FAM155A) (Homo sapiens, UniProt Q8IZF0, M1145A); conditions: read-out: % inhibition at 300 μM (-100 mV)
T3 construct: codon-optimised human cDNAs in modified pcDNA3.1(+); four mRNAs 1:1:1:1 co-injected in Xenopus laevis oocytes; 7SX3 is the human channelosome structure used for modelling; with Protein unc-79 homolog; Protein unc-80 homolog; NALCN channel auxiliary factor 1

[7] = read-out: % inhibition at 1 mM (-100 mV)
[8] = read-out: % inhibition at 1 mM (+80 mV)
[9] = outward inhibited more than inward current
[10] = outward current inhibited, inward potentiated

## CCC(=C(c1ccc(O)cc1)c1ccc(OCCNC)cc1)c1ccccc1 (mixture of isomers) [(E/Z)-endoxifen]
[1]
  % inhibition at 100 μM: two (cetirizine and (E/Z)-endoxifen) inhibited both outward and inward currents

## NCCOB(c1ccccc1)c1ccccc1 [2-APB, 2-aminoethoxydiphenyl borate]
[2]; [7]
  inhibition at 1000 µM: 70.2 ± 8.2%
[3]; [7]
  inhibition at 1000 µM: 32.9 ± 12.9%

## COc1ccccc1CN[C@H]1C2CCN(CC2)[C@H]1C(c1ccccc1)c1ccccc1 [CP96345]
[4]; inhibition of outward current
  % inhibition at 300 μM: two selectively inhibited the outward (CP96345) or inward (lamotrigine) currents

## c1ccc(B(OB(c2ccccc2)c2ccccc2)c2ccccc2)cc1 [DPBA, diphenylborinic anhydride]
[2]; [8]
  inhibition at 1000 µM: 66.9 ± 4%

## CN(C)CCOC(c1ccccc1)c1ccccc1 [DPH, diphenhydramine]
[2]; [8]
  inhibition at 1000 µM: 60.3 ± 4.3%

## O=C(O)COCCN1CCN(C(c2ccccc2)c2ccc(Cl)cc2)CC1 (centres unmarked) [cetirizine]
[5]; inhibition of outward and inward currents
  % inhibition at 1 mM: two (cetirizine and (E/Z)-endoxifen) inhibited both outward and inward currents

## CN(C)CCCC1(c2ccc(F)cc2)OCc2cc(C#N)ccc21 (centres unmarked) [citalopram]
[5]; [9]
  % inhibition at 1 mM: three (hydroxyzine, promethazine, and citalopram) had a stronger inhibitory effect on the outward

## COc1ccc([C@@H]2Sc3ccccc3N(CCN(C)C)C(=O)[C@@H]2OC(C)=O)cc1 [diltiazem]
[4]; [10]
  % inhibition at 300 μM: three inhibited the outward and potentiated the inward currents (quinidine, diltiazem, and propafenone)

## CC(C)n1c(/C=C/C(O)CC(O)CC(=O)O)c(-c2ccc(F)cc2)c2ccccc21 (centres unmarked) [fluvastatin]
[5]; inhibition of inward current only
  % inhibition at 1 mM: one (fluvastatin) had no effect on the outward current, but inhibited the inward current efficaciously

## OCCOCCN1CCN(C(c2ccccc2)c2ccc(Cl)cc2)CC1 (centres unmarked) [hydroxyzine]
[5]; [9]
  % inhibition at 1 mM: three (hydroxyzine, promethazine, and citalopram) had a stronger inhibitory effect on the outward

## Nc1nnc(-c2cccc(Cl)c2Cl)c(N)n1 [lamotrigine]
[4]; inhibition of inward current
  % inhibition at 300 μM: two selectively inhibited the outward (CP96345) or inward (lamotrigine) currents

## O=C1NC(=O)C(c2ccccc2)(c2ccccc2)N1 [phenytoin]
[6]
  inhibition at 300 µM: 31 ± 9.2%
[3]; read-out: % inhibition at 300 μM (-100 mV)
  inhibition at 300 µM: 64.8 ± 6.7%

## CC(CN1c2ccccc2Sc2ccccc21)N(C)C (centres unmarked) [promethazine]
[5]; [9]
  % inhibition at 1 mM: three (hydroxyzine, promethazine, and citalopram) had a stronger inhibitory effect on the outward

## CCCNCC(O)COc1ccccc1C(=O)CCc1ccccc1 (centres unmarked) [propafenone]
[4]; [10]
  % inhibition at 300 μM: three inhibited the outward and potentiated the inward currents (quinidine, diltiazem, and propafenone)

## C=C[C@H]1CN2CC[C@H]1C[C@@H]2[C@@H](O)c1ccnc2ccc(OC)cc12 [quinidine]
[4]; [10]
  % inhibition at 300 μM: three inhibited the outward and potentiated the inward currents (quinidine, diltiazem, and propafenone)
